Experimental data published in patent US20140303396A1, “Method for Preparing High-Purity Fesoterodine Fumarate” (CHEMI S.P.A., priority 2009, published 2014).

What was measured:
[1] = Solid stability at T = 60° C. in atmosphere with 60% relative humidity (HPLC); type: physicochemical; design: Impurity RRt = 1.05 / Impurity RRt = 1.34 / Diester impurity: unit not given here
Protocol: In confirmation thereof, another stability test was carried out at 60° C. on the crystallized solid product, whose results are reported in Table 2. In detail, the experiment consists of introducing a sample of fesoterodine fumarate in an oven capable of maintaining a temperature of 60° C. and 60% relative humidity, drawing samples of the freshly introduced substance (time 0) after 24, 48, 72 and 144 hours staying in such conditions, and analyzing them in HPLC in order to verify their purity.

[2] = Solution stability in methylethylketone at T = 40° C. (HPLC); type: physicochemical
Protocol: In detail, the experiment related to Table 1 consists of dissolving fesoterodine fumarate in methylethylketone at 40° C., drawing samples of the freshly dissolved solution (time 0), after 1, 3 and 20 hours of maintenance at 40° C. and analyzing them in HPLC in order to verify their purity.

SMILES: CC(C)C(=O)Oc1ccc(CO)cc1[C@H](CCN(C(C)C)C(C)C)c1ccccc1.O=C(O)/C=C/C(=O)O [fesoterodine fumarate, 2-((R)-3-diisopropylammonium-1-phenylpropyl)-4-(hydroxymethyl) phenyl isobutyrate hydrogen fumarate]
- (R)-feso-deacyl ([1]; t = 0): 0.02%
- Diester impurity ([1]; t = 0): 0.04
- Feso fumaric ester impurity ([1]; t = 0): 0.09
- HPLC Purity ([1]; t = 0): 99.85 Area %
- (R)-feso-deacyl ([1]; t = 24 h): 0.02%
- Diester impurity ([1]; t = 24 h): 0.04
- Feso fumaric ester impurity ([1]; t = 24 h): 0.11
- HPLC Purity ([1]; t = 24 h): 99.83 Area %
- (R)-feso-deacyl ([1]; t = 48 h): 0.02%
- Diester impurity ([1]; t = 48 h): 0.04
- Feso fumaric ester impurity ([1]; t = 48 h): 0.12
- HPLC Purity ([1]; t = 48 h): 99.74 Area %
- Impurity RRt = 1.34 ([1]; t = 48 h): 0.08
- (R)-feso-deacyl ([1]; t = 72 h): 0.03%
- Diester impurity ([1]; t = 72 h): 0.04
- Feso fumaric ester impurity ([1]; t = 72 h): 0.13
- HPLC Purity ([1]; t = 72 h): 99.72 Area %
- Impurity RRt = 1.05 ([1]; t = 72 h): 0.02
- Impurity RRt = 1.34 ([1]; t = 72 h): 0.06
- (R)-feso-deacyl ([1]; t = 144 h): 0.05%
- Diester impurity ([1]; t = 144 h): 0.04
- Feso fumaric ester impurity ([1]; t = 144 h): 0.14
- HPLC Purity ([1]; t = 144 h): 99.64 Area %
- Impurity RRt = 1.05 ([1]; t = 144 h): 0.03
- Impurity RRt = 1.34 ([1]; t = 144 h): 0.07
- RRt = 1.86 ([1]; t = 144 h): 0.03%
- Feso fumaric ester impurity ([2]; t = 0): 0.07
- HPLC Purity ([2]; t = 0): 99.87 Area %
- Impurity RRt = 1.34 ([2]; t = 0): 0.06
- Feso fumaric ester impurity ([2]; t = 1 hour): 0.09
- HPLC Purity ([2]; t = 1 hour): 99.85 Area %
- Impurity RRt = 1.34 ([2]; t = 1 hour): 0.06
- (R)-feso-deacyl ([2]; t = 3 hours): 0.01%
- Diester impurity ([2]; t = 3 hours): 0.04
- Feso fumaric ester impurity ([2]; t = 3 hours): 0.12
- HPLC Purity ([2]; t = 3 hours): 99.77 Area %
- Impurity RRt = 1.34 ([2]; t = 3 hours): 0.06
- (R)-feso-deacyl ([2]; t = 20 hours): 0.02%
- Diester impurity ([2]; t = 20 hours): 0.06
- Feso fumaric ester impurity ([2]; t = 20 hours): 0.14
- HPLC Purity ([2]; t = 20 hours): 99.70 Area %
- Impurity RRt = 1.34 ([2]; t = 20 hours): 0.08
